Test results published in US20150044211A1, “COMBINATION OF A 6-OXO-1,6-DIHYDRO-PYRIDAZINE DERIVATIVE HAVING ANTI-CANCER ACTIVITY WITH OTHER ANTI-TUMOR COMPOUNDS” (MERCK PATENT GMBH, priority 2012, published 2015).

How the values were obtained:
[1] = tested on: human NCI-H441 NSCLC tumor cells; settings: female CD-1 nude mice; for T/C: end of treatment (18 days), compound 100 mg/kg orally 5 days on 2 days off, erlotinib 40 then 30 mg/kg (MTD)
Method: (§1) Method: Female CD-1 nude mice (6-8 week old) where subcutaneously injected with human NCI-H441 NSCLC tumor cells and were divided into 4 groups (ten animals in one group) after the tumors were established. Respective groups were administered orally with the 3-(1-{3-[5-(1-Methyl-piperidin-4-ylmethoxy)-pyrimidin-2-yl]-benzyl}-6-oxo-1,6-dihydro-pyridazin-3-yl)-benzonitrile hydrochloride hydrate (100 mg/kg—5 days on and 2 days off) or with erlotinib (initial 40 mg/kg followed by 30 mg/kg (MTD)-4 days on and 4 days off followed by 3 days on and 4 days off) alone or both drugs simultaneously for 18 days. […] Statistical calculation has been done at day 7, the day with most body weight difference in erlotinib monotherapy versus combination groups.

[2] = Body weight change / tolerability in the NCI-H441 xenograft study; settings: Day 7
Method: as §1

[3] = tested on: human H1975 NSCLC tumor cells; experiment: H1975 NSCLC xenograft, combination with cetuximab; assay type: in vivo; settings: single agent 100 mg/kg orally daily for three weeks; CD-1 nude mice
Excerpt: Method: Female CD-1 nude mice (6-8 week old) where subcutaneously injected with human H1975 NSCLC tumor cells and were divided into 4 groups (nine animals in one group) after the tumors were established.

[4] = tested on: luciferase-transfected human EBC-1 NSCLC tumor cells; experiment: EBC-1 NSCLC xenograft (luciferase-transfected), combination with B20.4-1; assay type: in vivo
Excerpt: Formation of lung metastases was reduced and could be only detected at the end of treatment in 3/10 mice. B20.4-1 was active with a T/C of 19% and lung metastases in 4/10 mice could be detected at the end of treatment. […] Detectable formation of lung metastases could be suppressed in 10/10 mice.

| SMILES | T/C [1] | Dunn's Multiple Comparison Test, Difference in rank sum (body weight change %) ([2]; versus Vehicle) | Dunn's Multiple Comparison Test, Significant? P < 0.05? (body weight change %) ([2]; versus Vehicle) | Dunn's Multiple Comparison Test, Summary (body weight change %) ([2]; versus Vehicle) | tumor growth delay (TGD) ([1]; compound 100 mg/kg, erlotinib 40 then 30 mg/kg, 18 days) | Dunn's Multiple Comparison Test, Difference in rank sum (body weight change %) ([2]; versus erlotinib 30 mg/kg) | Dunn's Multiple Comparison Test, Significant? P < 0.05? (body weight change %) ([2]; versus erlotinib 30 mg/kg) | Dunn's Multiple Comparison Test, Summary (body weight change %) ([2]; versus erlotinib 30 mg/kg) | anti-tumor activity (in words) [3] | partial regression ([4]; SCID hairless mice, 20 days of treatment) | lung metastases detected at the end of treatment ([4]; SCID hairless mice, 20 days, ex vivo lung images) | T/C ([4]; end of treatment (20 days), female SCID hairless mice, compound 10 mg/kg orally daily, B20.4-1 20 mg/kg intraperitoneally biweekly) |
| --- | --- | --- | --- | --- | --- | --- | --- | --- | --- | --- | --- | --- |
| C#Cc1cccc(Nc2ncnc3cc(OCCOC)c(OCCOC)cc23)c1 [erlotinib, reference compound] | 82% | 6.333 | no | ns |  |  |  |  |  |  |  |  |
| CN1CCC(COc2cnc(-c3cccc(Cn4nc(-c5cccc(C#N)c5)ccc4=O)c3)nc2)CC1.Cl.O [“A”, 3-(1-{3-[5-(1-Methyl-piperidin-4-ylmethoxy)-pyrimidin-2-yl]-benzyl}-6-oxo-1,6-dihydro-pyridazin-3-yl)-benzonitrile hydrochloride hydrate] | 20% | 2.000 | no | ns | 16 days | −4.333 | no | ns | inactive | 1/10 | 3/10 | −20% |
